{"source": "paper PMC8371461", "about": "(Frontiers in Pharmacology, 2021)", "key": {"Abelson (Abl)": {"target": "Abelson (Abl) (Homo sapiens, UniProt P00519)", "assay": "Milano activity test", "type": "biochemical", "details": "wild-type Abl; for Milano activity test: up to 100 µM"}, "CSNK1A1L": {"target": "T1, CSNK1A1L (Homo sapiens, UniProt Q8N752)", "T1 construct": "purchased DiscoverX (KINOMEscan)", "assay": "kinome scan", "type": "binding", "details": "10 µM"}, "MAPKAPK2": {"target": "T2, MAPKAPK2 (Homo sapiens, UniProt P49137)", "T2 construct": "purchased DiscoverX (KINOMEscan)", "assay": "kinome scan", "type": "binding", "details": "10 µM"}, "NDR2": {"target": "T3, NDR2 (Homo sapiens, UniProt Q9Y2H1)", "T3 construct": "purchased DiscoverX (KINOMEscan)", "assay": "kinome scan", "type": "binding", "details": "10 µM"}, "DDR1": {"target": "T4, DDR1 (Homo sapiens, UniProt Q08345)", "T4 construct": "purchased DiscoverX (KINOMEscan)", "assay": "kinome scan", "type": "binding", "details": "10 µM"}, "PRKCQ": {"target": "T5, PRKCQ (Homo sapiens, UniProt Q04759)", "T5 construct": "purchased DiscoverX (KINOMEscan)", "assay": "kinome scan", "type": "binding", "details": "10 µM"}, "DCAMKL3": {"target": "T6, DCAMKL3 (Homo sapiens, UniProt Q9C098)", "T6 construct": "purchased DiscoverX (KINOMEscan)", "assay": "kinome scan", "type": "binding", "details": "10 µM"}, "TAOK2": {"target": "T7, TAOK2 (Homo sapiens, UniProt Q9UL54)", "T7 construct": "purchased DiscoverX (KINOMEscan)", "assay": "kinome scan", "type": "binding", "details": "10 µM"}, "PRKG1": {"target": "T8, PRKG1 (Homo sapiens, UniProt Q13976)", "T8 construct": "purchased DiscoverX (KINOMEscan)", "assay": "kinome scan", "type": "binding", "details": "10 µM"}, "[1]": {"target": "T9, ABL1(T315I)-nonphosphorylated (Homo sapiens, UniProt P00519, T315I)", "T9 construct": "purchased DiscoverX (KINOMEscan)", "assay": "kinome scan", "type": "binding", "details": "10 µM"}, "JNK3": {"target": "T10, JNK3 (Homo sapiens, UniProt P53779)", "T10 construct": "purchased DiscoverX (KINOMEscan)", "assay": "kinome scan", "type": "binding", "details": "10 µM"}, "CSNK1A1": {"target": "T11, CSNK1A1 (Homo sapiens, UniProt P48729)", "T11 construct": "purchased DiscoverX (KINOMEscan)", "assay": "kinome scan", "type": "binding", "details": "10 µM"}, "AKT2": {"target": "T12, AKT2 (Homo sapiens, UniProt P31751)", "T12 construct": "purchased DiscoverX (KINOMEscan)", "assay": "kinome scan", "type": "binding", "details": "10 µM"}, "ABL1-phosphorylated": {"target": "T13, ABL1-phosphorylated (Homo sapiens, UniProt P00519)", "T13 construct": "purchased DiscoverX (KINOMEscan)", "assay": "kinome scan", "type": "binding", "details": "10 µM"}, "BMPR1A": {"target": "T14, BMPR1A (Homo sapiens, UniProt P36894)", "T14 construct": "purchased DiscoverX (KINOMEscan)", "assay": "kinome scan", "type": "binding", "details": "10 µM"}, "CAMK2D": {"target": "T15, CAMK2D (Homo sapiens, UniProt Q13557)", "T15 construct": "purchased DiscoverX (KINOMEscan)", "assay": "kinome scan", "type": "binding", "details": "10 µM"}, "[2]": {"target": "T16, RPS6KA5(Kin.Dom.1-N-terminal) (Homo sapiens, UniProt O75582)", "T16 construct": "RPS6KA5(Kin.Dom.1-N-terminal); purchased DiscoverX (KINOMEscan)", "assay": "kinome scan", "type": "binding", "details": "10 µM"}, "FRK": {"target": "T17, FRK (Homo sapiens, UniProt P42685)", "T17 construct": "purchased DiscoverX (KINOMEscan)", "assay": "kinome scan", "type": "binding", "details": "10 µM"}, "PYK2": {"target": "T18, PYK2 (Homo sapiens, UniProt Q14289)", "T18 construct": "purchased DiscoverX (KINOMEscan)", "assay": "kinome scan", "type": "binding", "details": "10 µM"}, "CTK": {"target": "T19, CTK (Homo sapiens, UniProt P42679)", "T19 construct": "purchased DiscoverX (KINOMEscan)", "assay": "kinome scan", "type": "binding", "details": "10 µM"}, "PKAC-alpha": {"target": "T20, PKAC-alpha (Homo sapiens, UniProt P17612)", "T20 construct": "purchased DiscoverX (KINOMEscan)", "assay": "kinome scan", "type": "binding", "details": "10 µM"}, "TGFBR1": {"target": "T21, TGFBR1 (Homo sapiens, UniProt P36897)", "T21 construct": "purchased DiscoverX (KINOMEscan)", "T21 sequence (P36897 34-503)": "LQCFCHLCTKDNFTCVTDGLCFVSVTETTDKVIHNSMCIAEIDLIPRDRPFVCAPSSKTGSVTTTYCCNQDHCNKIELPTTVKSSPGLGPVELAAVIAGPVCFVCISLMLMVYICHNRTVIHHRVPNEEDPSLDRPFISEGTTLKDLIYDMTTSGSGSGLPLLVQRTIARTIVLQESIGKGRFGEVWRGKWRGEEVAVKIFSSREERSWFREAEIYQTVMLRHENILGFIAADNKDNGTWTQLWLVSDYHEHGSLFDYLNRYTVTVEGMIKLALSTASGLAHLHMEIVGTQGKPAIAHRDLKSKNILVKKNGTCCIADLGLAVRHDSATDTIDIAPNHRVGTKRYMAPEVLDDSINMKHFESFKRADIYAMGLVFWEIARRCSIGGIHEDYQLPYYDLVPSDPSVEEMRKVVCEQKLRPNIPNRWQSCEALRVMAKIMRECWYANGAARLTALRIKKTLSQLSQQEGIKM", "assay": "kinome scan", "type": "binding", "details": "10 µM"}, "FGFR1": {"target": "T22, FGFR1 (Homo sapiens, UniProt P11362)", "T22 construct": "purchased DiscoverX (KINOMEscan)", "T22 sequence (P11362 22-822)": "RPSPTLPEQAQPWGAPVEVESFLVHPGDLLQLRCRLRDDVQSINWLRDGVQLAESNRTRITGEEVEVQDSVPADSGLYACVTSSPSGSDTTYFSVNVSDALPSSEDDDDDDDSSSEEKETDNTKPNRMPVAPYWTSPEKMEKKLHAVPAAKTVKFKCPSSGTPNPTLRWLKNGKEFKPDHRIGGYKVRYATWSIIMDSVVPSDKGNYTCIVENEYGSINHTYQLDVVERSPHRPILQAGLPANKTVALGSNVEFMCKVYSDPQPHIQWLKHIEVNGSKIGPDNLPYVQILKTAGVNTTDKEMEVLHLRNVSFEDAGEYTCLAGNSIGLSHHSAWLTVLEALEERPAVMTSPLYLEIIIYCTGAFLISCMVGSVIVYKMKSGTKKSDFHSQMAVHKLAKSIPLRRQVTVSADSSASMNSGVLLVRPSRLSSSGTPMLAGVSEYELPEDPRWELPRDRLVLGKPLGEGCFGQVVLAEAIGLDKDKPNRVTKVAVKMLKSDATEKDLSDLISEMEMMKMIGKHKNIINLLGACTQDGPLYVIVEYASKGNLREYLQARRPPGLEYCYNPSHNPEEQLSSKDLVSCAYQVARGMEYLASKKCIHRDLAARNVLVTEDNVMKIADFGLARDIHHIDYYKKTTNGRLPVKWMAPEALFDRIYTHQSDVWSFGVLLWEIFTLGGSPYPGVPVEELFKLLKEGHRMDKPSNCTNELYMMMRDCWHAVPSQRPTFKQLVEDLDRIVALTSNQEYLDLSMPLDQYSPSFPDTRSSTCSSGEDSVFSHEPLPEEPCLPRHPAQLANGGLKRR", "assay": "kinome scan", "type": "binding", "details": "10 µM"}, "[3]": {"target": "T23, RPS6KA5(Kin.Dom.2-C-terminal) (Homo sapiens, UniProt O75582)", "T23 construct": "RPS6KA5(Kin.Dom.2-C-terminal); purchased DiscoverX (KINOMEscan)", "assay": "kinome scan", "type": "binding", "details": "10 µM"}, "LTK": {"target": "T24, LTK (Homo sapiens, UniProt P29376)", "T24 construct": "purchased DiscoverX (KINOMEscan)", "assay": "kinome scan", "type": "binding", "details": "10 µM"}, "AKT3": {"target": "T25, AKT3 (Homo sapiens, UniProt Q9Y243)", "T25 construct": "purchased DiscoverX (KINOMEscan)", "assay": "kinome scan", "type": "binding", "details": "10 µM"}, "MERTK": {"target": "T26, MERTK (Homo sapiens, UniProt Q12866)", "T26 construct": "purchased DiscoverX (KINOMEscan)", "assay": "kinome scan", "type": "binding", "details": "10 µM"}, "MEK1": {"target": "T27, MEK1 (Homo sapiens, UniProt Q02750)", "T27 construct": "purchased DiscoverX (KINOMEscan)", "assay": "kinome scan", "type": "binding", "details": "10 µM"}, "ERK8": {"target": "T28, ERK8 (Homo sapiens, UniProt Q8TD08)", "T28 construct": "purchased DiscoverX (KINOMEscan)", "assay": "kinome scan", "type": "binding", "details": "10 µM"}, "PIK3CA(C420R)": {"target": "T29, PIK3CA(C420R) (Homo sapiens, UniProt P42336, C420R)", "T29 construct": "purchased DiscoverX (KINOMEscan)", "T29 sequence (P42336 whole entry C420R)": "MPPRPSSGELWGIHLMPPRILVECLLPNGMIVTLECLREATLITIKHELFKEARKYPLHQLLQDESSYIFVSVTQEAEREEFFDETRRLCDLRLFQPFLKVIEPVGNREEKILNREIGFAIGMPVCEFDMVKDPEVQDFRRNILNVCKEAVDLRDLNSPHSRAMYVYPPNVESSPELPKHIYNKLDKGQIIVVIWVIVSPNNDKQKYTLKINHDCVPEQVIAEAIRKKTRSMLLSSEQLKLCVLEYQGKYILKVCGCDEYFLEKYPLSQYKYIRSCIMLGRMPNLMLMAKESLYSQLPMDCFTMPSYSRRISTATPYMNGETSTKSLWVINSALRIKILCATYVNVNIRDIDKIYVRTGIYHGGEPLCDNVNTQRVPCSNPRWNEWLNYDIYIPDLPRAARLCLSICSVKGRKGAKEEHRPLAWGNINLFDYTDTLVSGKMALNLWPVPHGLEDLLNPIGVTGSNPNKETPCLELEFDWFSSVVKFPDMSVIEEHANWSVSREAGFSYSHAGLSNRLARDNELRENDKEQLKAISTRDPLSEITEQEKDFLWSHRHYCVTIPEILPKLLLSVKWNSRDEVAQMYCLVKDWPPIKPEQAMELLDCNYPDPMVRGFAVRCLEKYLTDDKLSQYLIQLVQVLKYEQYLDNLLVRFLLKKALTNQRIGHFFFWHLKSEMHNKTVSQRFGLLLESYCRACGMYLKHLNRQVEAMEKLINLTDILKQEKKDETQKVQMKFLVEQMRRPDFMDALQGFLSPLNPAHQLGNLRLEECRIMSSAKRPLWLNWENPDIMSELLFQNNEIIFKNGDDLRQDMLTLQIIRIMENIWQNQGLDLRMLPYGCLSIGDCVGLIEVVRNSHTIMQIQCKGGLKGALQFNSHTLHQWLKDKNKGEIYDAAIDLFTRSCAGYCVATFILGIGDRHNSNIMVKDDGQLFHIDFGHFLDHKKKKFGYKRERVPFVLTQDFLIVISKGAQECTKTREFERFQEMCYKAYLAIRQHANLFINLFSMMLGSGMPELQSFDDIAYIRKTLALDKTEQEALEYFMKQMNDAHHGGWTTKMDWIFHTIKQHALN", "assay": "kinome scan", "type": "binding", "details": "10 µM"}, "KIT": {"target": "T30, KIT (Homo sapiens, UniProt P10721)", "T30 construct": "purchased DiscoverX (KINOMEscan)", "T30 sequence (P10721 26-976)": "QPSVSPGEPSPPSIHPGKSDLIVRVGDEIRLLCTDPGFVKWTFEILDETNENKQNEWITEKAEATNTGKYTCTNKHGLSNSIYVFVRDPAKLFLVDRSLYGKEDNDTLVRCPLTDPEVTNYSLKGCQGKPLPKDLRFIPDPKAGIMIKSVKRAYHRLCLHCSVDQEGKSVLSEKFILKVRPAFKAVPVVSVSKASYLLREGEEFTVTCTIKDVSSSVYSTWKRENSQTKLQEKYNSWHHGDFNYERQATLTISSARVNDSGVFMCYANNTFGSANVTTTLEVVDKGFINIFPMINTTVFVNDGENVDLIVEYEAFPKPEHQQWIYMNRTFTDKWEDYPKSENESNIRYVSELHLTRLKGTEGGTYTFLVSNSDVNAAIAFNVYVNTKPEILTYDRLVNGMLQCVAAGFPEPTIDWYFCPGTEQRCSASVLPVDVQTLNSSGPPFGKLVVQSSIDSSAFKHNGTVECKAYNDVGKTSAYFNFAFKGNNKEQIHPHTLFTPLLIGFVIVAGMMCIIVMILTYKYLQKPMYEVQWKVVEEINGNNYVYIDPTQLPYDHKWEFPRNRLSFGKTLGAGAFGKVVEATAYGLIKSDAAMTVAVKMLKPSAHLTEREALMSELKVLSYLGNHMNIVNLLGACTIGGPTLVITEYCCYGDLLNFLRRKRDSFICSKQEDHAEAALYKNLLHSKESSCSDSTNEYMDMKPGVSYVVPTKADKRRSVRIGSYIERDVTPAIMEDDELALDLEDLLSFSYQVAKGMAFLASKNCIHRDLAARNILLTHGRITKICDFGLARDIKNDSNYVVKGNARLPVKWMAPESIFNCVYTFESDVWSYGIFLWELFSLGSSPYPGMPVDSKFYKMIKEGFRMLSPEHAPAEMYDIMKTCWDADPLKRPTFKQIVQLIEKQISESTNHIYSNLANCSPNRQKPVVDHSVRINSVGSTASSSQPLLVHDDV", "assay": "kinome scan", "type": "binding"}, "PKMYT1": {"target": "T31, PKMYT1 (Homo sapiens, UniProt Q99640)", "T31 construct": "purchased DiscoverX (KINOMEscan)", "assay": "kinome scan", "type": "binding", "details": "10 µM"}, "NEK1": {"target": "T32, NEK1 (Homo sapiens, UniProt Q96PY6)", "T32 construct": "purchased DiscoverX (KINOMEscan)", "assay": "kinome scan", "type": "binding", "details": "10 µM"}, "PLK3": {"target": "T33, PLK3 (Homo sapiens, UniProt Q9H4B4)", "T33 construct": "purchased DiscoverX (KINOMEscan)", "T33 sequence (Q9H4B4 whole entry)": "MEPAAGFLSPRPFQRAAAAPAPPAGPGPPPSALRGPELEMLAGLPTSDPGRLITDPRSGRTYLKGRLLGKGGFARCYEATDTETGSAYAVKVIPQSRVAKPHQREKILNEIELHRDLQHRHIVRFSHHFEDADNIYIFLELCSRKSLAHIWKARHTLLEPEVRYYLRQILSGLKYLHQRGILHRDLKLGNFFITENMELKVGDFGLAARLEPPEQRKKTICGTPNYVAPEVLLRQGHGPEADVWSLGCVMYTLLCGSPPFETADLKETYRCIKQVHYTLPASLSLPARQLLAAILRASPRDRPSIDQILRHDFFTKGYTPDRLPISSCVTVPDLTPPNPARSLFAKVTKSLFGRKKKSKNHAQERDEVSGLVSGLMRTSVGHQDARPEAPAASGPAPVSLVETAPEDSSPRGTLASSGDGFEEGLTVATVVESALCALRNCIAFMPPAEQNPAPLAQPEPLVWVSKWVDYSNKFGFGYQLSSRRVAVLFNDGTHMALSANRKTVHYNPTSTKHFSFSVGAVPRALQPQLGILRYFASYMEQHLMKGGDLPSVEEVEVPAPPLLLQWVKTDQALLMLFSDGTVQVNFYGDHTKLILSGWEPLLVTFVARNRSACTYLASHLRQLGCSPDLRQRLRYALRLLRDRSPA", "assay": "kinome scan", "type": "binding", "details": "10 µM"}, "MAP3K3": {"target": "T34, MAP3K3 (Homo sapiens, UniProt Q99759)", "T34 construct": "purchased DiscoverX (KINOMEscan)", "assay": "kinome scan", "type": "binding", "details": "10 µM"}, "TRKC": {"target": "T35, TRKC (Homo sapiens, UniProt Q16288)", "T35 construct": "purchased DiscoverX (KINOMEscan)", "assay": "kinome scan", "type": "binding", "details": "10 µM"}, "IRAK4": {"target": "T36, IRAK4 (Homo sapiens, UniProt Q9NWZ3)", "T36 construct": "purchased DiscoverX (KINOMEscan)", "assay": "kinome scan", "type": "binding", "details": "10 µM"}, "MAP3K1": {"target": "T37, MAP3K1 (Homo sapiens, UniProt Q13233)", "T37 construct": "purchased DiscoverX (KINOMEscan)", "assay": "kinome scan", "type": "binding", "details": "10 µM"}, "EPHB3": {"target": "T38, EPHB3 (Homo sapiens, UniProt P54753)", "T38 construct": "purchased DiscoverX (KINOMEscan)", "T38 sequence (P54753 34-998)": "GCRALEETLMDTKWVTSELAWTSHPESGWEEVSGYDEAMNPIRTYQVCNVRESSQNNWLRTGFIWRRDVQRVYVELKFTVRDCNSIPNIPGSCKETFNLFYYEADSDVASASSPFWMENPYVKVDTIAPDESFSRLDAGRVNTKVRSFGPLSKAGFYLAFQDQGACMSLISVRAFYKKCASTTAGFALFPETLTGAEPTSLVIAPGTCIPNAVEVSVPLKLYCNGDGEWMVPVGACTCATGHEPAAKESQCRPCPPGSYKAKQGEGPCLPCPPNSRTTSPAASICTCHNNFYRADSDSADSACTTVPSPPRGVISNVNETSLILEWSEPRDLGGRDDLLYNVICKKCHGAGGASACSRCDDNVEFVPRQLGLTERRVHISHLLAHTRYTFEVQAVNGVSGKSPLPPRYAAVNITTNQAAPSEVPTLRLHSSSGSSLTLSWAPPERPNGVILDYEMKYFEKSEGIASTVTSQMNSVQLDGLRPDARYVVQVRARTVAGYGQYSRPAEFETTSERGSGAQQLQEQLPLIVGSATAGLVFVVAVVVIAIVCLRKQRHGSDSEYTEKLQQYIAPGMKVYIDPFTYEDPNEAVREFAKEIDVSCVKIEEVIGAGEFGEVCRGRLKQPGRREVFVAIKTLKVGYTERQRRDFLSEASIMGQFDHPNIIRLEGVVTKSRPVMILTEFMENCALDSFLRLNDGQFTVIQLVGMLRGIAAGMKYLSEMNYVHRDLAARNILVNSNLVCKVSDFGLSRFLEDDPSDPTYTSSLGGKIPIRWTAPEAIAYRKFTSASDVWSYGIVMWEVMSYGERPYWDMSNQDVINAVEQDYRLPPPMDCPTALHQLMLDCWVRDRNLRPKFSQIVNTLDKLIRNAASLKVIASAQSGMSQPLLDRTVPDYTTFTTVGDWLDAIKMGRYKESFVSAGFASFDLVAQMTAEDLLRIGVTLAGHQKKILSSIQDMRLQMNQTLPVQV", "assay": "kinome scan", "type": "binding", "details": "10 µM"}, "EPHA8": {"target": "T39, EPHA8 (Homo sapiens, UniProt P29322)", "T39 construct": "purchased DiscoverX (KINOMEscan)", "assay": "kinome scan", "type": "binding", "details": "10 µM"}, "HIPK4": {"target": "T40, HIPK4 (Homo sapiens, UniProt Q8NE63)", "T40 construct": "purchased DiscoverX (KINOMEscan)", "assay": "kinome scan", "type": "binding", "details": "10 µM"}}}
{"smiles": "Nc1ccc(N=Nc2ccccc2)c(N)n1", "note": "[phenazopyridine, 2,6-diamino-3-(phenylazo)pyridine]", "values": [{"measurement": "inhibition at 500 µM", "setting": "Abelson (Abl); 500 µM, data not shown", "value": 35, "unit": "%"}, {"measurement": "Milano activity test", "setting": "Abelson (Abl)", "value": "not inhibited"}, {"measurement": "Milano activity test", "setting": "Abelson (Abl); listed as Phenazopyridine", "value": "Phenazopyridine is inactive at 100 µM"}, {"measurement": "kinase inhibition", "setting": "CSNK1A1L", "value": 100}, {"measurement": "kinase inhibition", "setting": "MAPKAPK2", "value": 86}, {"measurement": "kinase inhibition", "setting": "NDR2", "value": 100}, {"measurement": "kinase inhibition", "setting": "DDR1", "value": 96}, {"measurement": "kinase inhibition", "setting": "PRKCQ", "value": 81}, {"measurement": "kinase inhibition", "setting": "DCAMKL3", "value": 92}, {"measurement": "kinase inhibition", "setting": "TAOK2", "value": 91}, {"measurement": "kinase inhibition", "setting": "PRKG1", "value": 92}, {"measurement": "kinase inhibition", "setting": "[1]", "value": 100}, {"measurement": "kinase inhibition", "setting": "JNK3", "value": 91}, {"measurement": "kinase inhibition", "setting": "CSNK1A1", "value": 85}, {"measurement": "kinase inhibition", "setting": "AKT2", "value": 100}, {"measurement": "kinase inhibition", "setting": "ABL1-phosphorylated", "value": 67}, {"measurement": "kinase inhibition", "setting": "BMPR1A", "value": 98}, {"measurement": "kinase inhibition", "setting": "CAMK2D", "value": 88}, {"measurement": "kinase inhibition", "setting": "[2]", "value": 100}, {"measurement": "remaining binding (% of control)", "setting": "FRK", "value": 100}, {"measurement": "kinase inhibition", "setting": "PYK2", "value": 100}, {"measurement": "kinase inhibition", "setting": "CTK", "value": 98}, {"measurement": "kinase inhibition", "setting": "PKAC-alpha", "value": 100}, {"measurement": "kinase inhibition", "setting": "TGFBR1", "value": 100}, {"measurement": "kinase inhibition", "setting": "FGFR1", "value": 100}, {"measurement": "kinase inhibition", "setting": "[3]", "value": 100}, {"measurement": "kinase inhibition", "setting": "LTK", "value": 96}, {"measurement": "kinase inhibition", "setting": "AKT3", "value": 92}, {"measurement": "kinase inhibition", "setting": "MERTK", "value": 100}, {"measurement": "kinase inhibition", "setting": "MEK1", "value": 99}, {"measurement": "kinase inhibition", "setting": "ERK8", "value": 100}, {"measurement": "kinase inhibition", "setting": "PIK3CA(C420R)", "value": 100}, {"measurement": "percent of control binding remaining", "setting": "KIT; KIT, 10 µM", "value": 41}, {"measurement": "remaining binding at 10 µM", "setting": "KIT; c-KIT wt, read-out: Kinome scan (% of control at 10 µM)", "value": 41, "unit": "%"}, {"measurement": "kinase inhibition", "setting": "PKMYT1", "value": 85}, {"measurement": "kinase inhibition", "setting": "NEK1", "value": 100}, {"measurement": "remaining binding (% of control)", "setting": "PLK3", "value": 98}, {"measurement": "kinase inhibition", "setting": "MAP3K3", "value": 89}, {"measurement": "kinase inhibition", "setting": "TRKC", "value": 90}, {"measurement": "kinase inhibition", "setting": "IRAK4", "value": 100}, {"measurement": "kinase inhibition", "setting": "MAP3K1", "value": 100}, {"measurement": "kinase inhibition", "setting": "EPHB3", "value": 85}, {"measurement": "kinase inhibition", "setting": "EPHA8", "value": 86}, {"measurement": "kinase inhibition", "setting": "HIPK4", "value": 72}]}
